Laboratory results taken from ChEMBL document CHEMBL1201862, “PubChem BioAssay data set” (2004).
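Growth conditions: 96-well plates. Treatment: test compound, 48 hours, 5 concentrations. Analysis: linear interpolation between bracketing concentrations; unreached endpoints set to highest concentration. GI50 = concentration required for 50% inhibition of growth.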 Active and inactive are the calls of the source. No stated cut-off is given here; in the data, active = GI50 up to about 1.1 µM and inactive = higher.

Key:
Test in all cases: inhibition of tumour cell growth, NCI panel, 48 h
SF-539 = system: SF-539
HOP-92 = system: HOP-92
SF-295 = system: SF-295
NCI-H226 = system: NCI-H226
NCI-H23 = system: NCI-H23
SNB-75 = system: SNB-75
A549 = system: A549
PC-3 = system: PC-3
M14 = system: M14
A498 = system: A498
K562 = system: K562
786-0 = system: 786-0
SNB-19 = system: SNB-19
NCI/ADR-RES = system: NCI/ADR-RES
IGROV-1 = system: IGROV-1
HOP-62 = system: HOP-62
Hs-578T = system: Hs-578T
CCRF-CEM = system: CCRF-CEM
HCT-15 = system: HCT-15
Malme-3M = system: Malme-3M
MDA-MB-435 = system: MDA-MB-435
SW-620 = system: SW-620
HT-29 = system: HT-29
MCF7 = system: MCF7
UO-31 = system: UO-31
MDA-N = system: MDA-N
MDA-MB-231 = system: MDA-MB-231
CAKI-1 = system: CAKI-1
RPMI-8226 = system: RPMI-8226
HCC 2998 = system: HCC 2998
OVCAR-8 = system: OVCAR-8
MOLT-4 = system: MOLT-4
U-251 = system: U-251
UACC-257 = system: UACC-257
OVCAR-3 = system: OVCAR-3
COLO 205 = system: COLO 205
TK-10 = system: TK-10
SF-268 = system: SF-268
HL-60 = system: HL-60
NCI-H460 = system: NCI-H460
LOX IMVI = system: LOX IMVI
SK-MEL-28 = system: SK-MEL-28
OVCAR-4 = system: OVCAR-4
ACHN = system: ACHN
OVCAR-5 = system: OVCAR-5
KM12 = system: KM12
EKVX = system: EKVX
DU-145 = system: DU-145
SK-MEL-5 = system: SK-MEL-5
RXF 393 = system: RXF 393
SK-MEL-2 = system: SK-MEL-2
UACC-62 = system: UACC-62
SK-OV-3 = system: SK-OV-3
T47D = system: T47D
SR = system: SR
NCI-H522 = system: NCI-H522

## CN(C)/N=C1\C=C2CC[C@H](O[Si](C)(C)C(C)(C)C)[C@@]2(C)CC1
SF-539
  GI50: 26.2 µM (inactive)
HOP-92
  GI50: 15.2 µM (inactive)
SF-295
  GI50: 16.4 µM (inactive)
NCI-H226
  GI50: 20.3 µM (inactive)
NCI-H23
  GI50: 23.2 µM (inactive)
SNB-75
  GI50: 16.3 µM (inactive)
A549
  GI50: 19.5 µM (inactive)
PC-3
  GI50: 14.1 µM (inactive)
M14
  GI50: 18.2 µM (inactive)
A498
  GI50: 17.8 µM (inactive)
K562
  GI50: 15.5 µM (inactive)
786-0
  GI50: 18 µM (inactive)
SNB-19
  GI50: 17.7 µM (inactive)
NCI/ADR-RES
  GI50: 18.2 µM (inactive)
IGROV-1
  GI50: 21.7 µM (inactive)
HOP-62
  GI50: 17.9 µM (inactive)
Hs-578T
  GI50: 18.1 µM (inactive)
CCRF-CEM
  GI50: 11.8 µM (inactive)
HCT-15
  GI50: 17.6 µM
Malme-3M
  GI50: 15.6 µM (inactive)
MDA-MB-435
  GI50: 16.4 µM (inactive)
SW-620
  GI50: 17.5 µM (inactive)
HT-29
  GI50: 19 µM (inactive)
MCF7
  GI50: 15.6 µM (inactive)
UO-31
  GI50: 16.3 µM (inactive)
MDA-N
  GI50: 19.9 µM (inactive)
MDA-MB-231
  GI50: 16.6 µM (inactive)
CAKI-1
  GI50: 14.3 µM (inactive)
RPMI-8226
  GI50: 4.4 µM (inactive)
HCC 2998
  GI50: 16.9 µM (inactive)
OVCAR-8
  GI50: 16.9 µM (inactive)
MOLT-4
  GI50: 12.9 µM (inactive)
U-251
  GI50: 16.2 µM (inactive)
UACC-257
  GI50: 16.7 µM (inactive)
OVCAR-3
  GI50: 14.5 µM (inactive)
COLO 205
  GI50: 16.9 µM (inactive)
TK-10
  GI50: 19.7 µM (inactive)
SF-268
  GI50: 19.7 µM (inactive)
HL-60
  GI50: 7.93 µM (inactive)
NCI-H460
  GI50: 17.3 µM (inactive)
LOX IMVI
  GI50: 18.3 µM (inactive)
SK-MEL-28
  GI50: 15.9 µM (inactive)
OVCAR-4
  GI50: 14.9 µM (inactive)
ACHN
  GI50: 16.5 µM (inactive)
OVCAR-5
  GI50: 16.9 µM (inactive)
KM12
  GI50: 16.4 µM (inactive)
EKVX
  GI50: 21.7 µM (inactive)
DU-145
  GI50: 15.8 µM (inactive)
SK-MEL-5
  GI50: 12.4 µM (inactive)
RXF 393
  GI50: 14.2 µM (inactive)
SK-MEL-2
  GI50: 16.2 µM (inactive)
UACC-62
  GI50: 15.1 µM (inactive)
SK-OV-3
  GI50: 24.9 µM (inactive)
T47D
  GI50: 12.2 µM (inactive)
SR
  GI50: 18.6 µM (inactive)
NCI-H522
  GI50: 10.4 µM (inactive)
